Assay [1] deals with T1, porcine pepsin (Sus scrofa, UniProt P00791).
T1 construct: purchased Worthington Biochemical Corporation
The experiment in a line: peptic activity assay, fluorescence polarization with casein-Alexa647. It counts as biochemical. The conditions noted are these: for IC50 for pepsin: in vitro binding and inhibition assays, IC50 from kinetic traces. On the procedure:
To examine whether HIV protease inhibitors bound and inhibited pepsin, we developed assays based on fluorescence polarization which measures size-dependent molecular rotation thereby permitting detection of degradation, association and dissociation events^80. A competitive binding assay was designed employing pepstatin, an inhibitor of sub-nanomolar affinity^81. Pepstatin-Alexa647 was synthesized by dissolving 1 mg pepstatin A (Sigma-Aldrich) in a 50:50 mixture of dimethylformamide (DMF) and dimethylsulfoxide (DMS) followed by the addition of N,N,N′,N′-Tetramethyl-O—(N-succinimidyl)uronium tetrafluoroborate (0.6 mg) and trimethylamine (10 μL) DMF. The mixture was stirred for 1 hour, after which 1 mg Alexa Fluor 647 Cadaverine, Disodium Salt (ThermoFisher Scientific) was added. After 2 hours, the solvents were evaporated under high vacuum (35° C.) and residue partially dissolved in 10% methanol and transferred onto a C18 cartridge (Waters Corporation, Milford, MA). Increasing percentages of methanol were used for the elution. […] An enzymatic inhibition assay was designed using casein substrate.^82 Bovine alpha casein (Sigma-Aldrich, St. Louis, MO) was labeled with Alexa Fluor 647 Carboxylic Acid, Succinimidyl Ester (ThermoFisher Scientific, Waltham, MA) as described.^82 Briefly, the two were combined at 2.5 ug/mg label to protein ratio in 0.1M sodium bicarbonate for 15 minutes and labeled casein was separated from unbound label in a Sephadex G-25 (Sigma-Aldrich) column comprised of 90×5 mm packed beads in a glass Pasteur pipette, eluted with dPBS pH7.4 (ThermoFisher Scientific). The fast-moving band (casein-bound fluorophore) was collected in ˜0.4 ml volume. Concentration of resultant probe (casein-Alexa647 in PBS-azide) was estimated via spectrophotometry using Beer's law (Implen Nanophotometer, Implen, Inc. Westlake Village, CA).
(§1) Assays were optimized using ranges of 0.3-1000 μM unlabeled pepstatin, 100-500 nM pepstatin-Alexa647 or casein-Alexa647 probe, 0.003-3 U/μl porcine pepsin (Worthington Biochemical Corporation, Lakewood, NJ), and 5-37.5% DMSO (HIV protease inhibitor diluent) in 0.1 M HCl, pH 1 with 0.01% v/v Tween-20 in 20 μl volumes in 384-well black optical plates (Nunc, Roskilde, DK) and read on a BioTek Cytation 5 (BioTek Instruments, Winooski, VT) with far red FP filter cube (excitation/emission 620/680 nm). Unlabeled pepstatin dose-response curves were used to ensure that the assays were responsive to pepsin inhibition. […] Assays were performed twice with triplicate reactions read for five minutes and mean mP plotted against probe concentration (binding assay) or read at <2 minutes intervals over 30 minutes with mean mP of plotted over time (activity assay). Half maximal inhibitory concentration (IC50) of inhibitors were calculated from kinetic traces analyzed using an online tool (https://icekat.herokuapp.com/icekat)^83. mP was normalized to blank (absent inhibitor) to derive percent bound or activity.
(In fluorescence polarisation assays a small probe gives low polarisation when free and higher when bound to something large.)

The target of assay [2] is T2, porcine pepsin A (Sus scrofa, UniProt P00791).
T2 construct: purchased Worthington Biochemical Corporation
The assay is described as follows: competitive binding assay, fluorescence polarization with pepstatin-Alexa647. The conditions noted are these: 100 nM probe, 0.03 U/ul porcine pepsin A, 37.5% DMSO, 0.1 M HCl pH 1. On the procedure: To examine whether HIV protease inhibitors bound and inhibited pepsin, we developed assays based on fluorescence polarization which measures size-dependent molecular rotation thereby permitting detection of degradation, association and dissociation events^80. A competitive binding assay was designed employing pepstatin, an inhibitor of sub-nanomolar affinity^81. Pepstatin-Alexa647 was synthesized by dissolving 1 mg pepstatin A (Sigma-Aldrich) in a 50:50 mixture of dimethylformamide (DMF) and dimethylsulfoxide (DMS) followed by the addition of N,N,N′,N′-Tetramethyl-O—(N-succinimidyl)uronium tetrafluoroborate (0.6 mg) and trimethylamine (10 μL) DMF. The mixture was stirred for 1 hour, after which 1 mg Alexa Fluor 647 Cadaverine, Disodium Salt (ThermoFisher Scientific) was added. After 2 hours, the solvents were evaporated under high vacuum (35° C.) and residue partially dissolved in 10% methanol and transferred onto a C18 cartridge (Waters Corporation, Milford, MA). Increasing percentages of methanol were used for the elution. Pepstatin-Alexa647 eluted at 45% methanol. An enzymatic inhibition assay was designed using casein substrate.^82 Bovine alpha casein (Sigma-Aldrich, St. Louis, MO) was labeled with Alexa Fluor 647 Carboxylic Acid, Succinimidyl Ester (ThermoFisher Scientific, Waltham, MA) as described.^82 Briefly, the two were combined at 2.5 ug/mg label to protein ratio in 0.1M sodium bicarbonate for 15 minutes and labeled casein was separated from unbound label in a Sephadex G-25 (Sigma-Aldrich) column comprised of 90×5 mm packed beads in a glass Pasteur pipette, eluted with dPBS pH7.4 (ThermoFisher Scientific). The fast-moving band (casein-bound fluorophore) was collected in ˜0.4 ml volume. […]
as §1, with “nm).” for “nm). Unlabeled pepstatin dose-response curves were used to ensure that the assays were responsive to pepsin inhibition.”

The record followed here is patent publication US20240041764A1, “Sustained-Release Oral Fosamprenavir Formulation for Treatment of Reflux” (The Medical College of Wisconsin, Inc., priority 2022, published 2024).

T1 sequence (P00791 60-385): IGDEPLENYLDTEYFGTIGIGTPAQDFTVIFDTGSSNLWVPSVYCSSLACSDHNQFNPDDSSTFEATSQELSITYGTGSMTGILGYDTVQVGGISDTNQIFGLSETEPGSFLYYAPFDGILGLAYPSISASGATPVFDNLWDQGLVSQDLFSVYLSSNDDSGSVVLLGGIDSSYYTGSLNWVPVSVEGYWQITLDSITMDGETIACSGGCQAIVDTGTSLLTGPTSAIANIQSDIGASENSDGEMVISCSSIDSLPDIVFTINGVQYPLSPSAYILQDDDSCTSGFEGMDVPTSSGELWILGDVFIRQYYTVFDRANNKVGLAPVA
T2 sequence (P00791 60-385): as above

For the molecule `CC(C)CN(C[C@@H](O)[C@H](Cc1ccccc1)NC(=O)O[C@H]1CO[C@H]2OCC[C@H]21)S(=O)(=O)c1ccc(N)cc1` [darunavir, [(3aS,4R,6aR)-2,3,3a,4,5,6a-hexahydrofuro[2,3-b]furan-4-yl]N-[(2S,3R)-4-[(4-aminophenyl)sulfonyl-(2-methylpropyl)amino]-3-hydroxy-1-phenylbutan-2-yl]carbamate], in assay [1] (200 nM probe, 0.01 U/μL pepsin, 5% DMSO, 0.1 M HCl pH 1), the “inhibited pepsin (peptic activity)” value is “low micromolar”. Also, the IC50 for pepsin entry is listed as “low micromolar range” in assay [1] and “lowest IC50” in assay [1] (listed as Darunavir). Moreover, in assay [2], the “bound pepsin (competitive binding)” value is given as “low micromolar”.
